Test results taken from BindingDB's records for doi:10.1021/jm031046g (Novartis Institutes For Biomedical Research, 2004).

Target: C-C chemokine receptor type 5 (Macaca fascicularis)
Assay: Antagonistic activity against monkey C-C chemokine receptor type 5.

Row | SMILES | IC50
1 | Cc1cc[n+]([O-])c(C)c1C(=O)N1CCC(N2CCC(N(c3ccccc3)c3ccccc3)CC2)CC1 [(2,4-Dimethyl-1-oxy-pyridin-3-yl)-(4-diphenylamino-[1,4']bipiperidinyl-1'-yl)-methanone] | 117 nM
2 | Cc1cccc(C)c1C(=O)N1CCC(C)(N2CCC(Nc3ccc4ccn(C)c4c3)CC2)CC1 [(2,6-Dimethyl-phenyl)-[4'-methyl-4-(1-methyl-1H-indol-6-ylamino)-[1,4']bipiperidinyl-1'-yl]-methanone] | 43 nM
3 | Cc1cccc(C)c1C(=O)N1CCC(C)(N2CCC(Nc3cccc4ccn(C)c34)CC2)CC1 [(2,6-Dimethyl-phenyl)-[4'-methyl-4-(1-methyl-1H-indol-7-ylamino)-[1,4']bipiperidinyl-1'-yl]-methanone] | 147 nM
4 | Cc1cccc(C)c1C(=O)N1CCC(C)(N2CCC(Nc3ccc(C(F)(F)F)cc3)CC2)CC1 [(2,6-Dimethyl-phenyl)-[4'-methyl-4-(4-trifluoromethyl-phenylamino)-[1,4']bipiperidinyl-1'-yl]-methanone] | 1.1 nM
5 | Cc1ccccc1C(=O)N1CCC(C)(N2CCC(N(c3ccccc3)c3ccccc3)CC2)CC1 [(4-Diphenylamino-4'-methyl-[1,4']bipiperidinyl-1'-yl)-o-tolyl-methanone] | 28.6 nM
6 | Cc1cccc(C)c1C(=O)N1CCC(C)(N2CCC(N(Cc3ccccc3)c3ccc(Br)cc3)CC2)CC1 [{4-[Benzyl-(4-bromo-phenyl)-amino]-4'-methyl-[1,4']bipiperidinyl-1'-yl}-(2,6-dimethyl-phenyl)-methanone] | 6.2 nM
